# Data taken from patent US20160038505A1, “METHODS AND COMPOSITIONS FOR TREATING IMPULSE CONTROL DISORDER, ANXIETY-RELATED DISORDERS, VIOLENCE AND/OR ANGER, OR REGULATING FOOD INTAKE” (priority 2014, published 2016).
# Test: Serum pharmacokinetics in opioid-dependent patients (Phase IB)
# Assay type: in vivo, human
# Design: unit not given here
# Protocol: Three cohorts of nine (9) subjects (6 administered noribogaine and 3 administered placebo in each cohort) were evaluated for tolerability, pharmacokinetics, and efficacy. Cohort 1 received a single dose of 60 mg noribogaine or placebo. Cohort 2 received a single dose of 120 mg noribogaine or placebo. Cohort 3 received a single dose of 180 mg noribogaine or placebo.
# FIG. 4 indicates the serum noribogaine concentration over time for each cohort.
structure (smiles),measurement,setting,value
CC[C@H]1CC2C[C@H]3c4[nH]c5ccc(O)cc5c4CCN(C2)C13 [noribogaine],Serum noribogaine concentration,"60 mg, time 0",0
same,Serum noribogaine concentration,"60 mg, time 0.5",3.75
same,Serum noribogaine concentration,"60 mg, time 1",17.86
same,Serum noribogaine concentration,"60 mg, time 1.5",42.54
same,Serum noribogaine concentration,"60 mg, time 2",53.01
same,Serum noribogaine concentration,"60 mg, time 2.5",63.71
same,Serum noribogaine concentration,"60 mg, time 3",72.95
same,Serum noribogaine concentration,"60 mg, time 3.5",71.43
same,Serum noribogaine concentration,"60 mg, time 4",72.89
same,Serum noribogaine concentration,"60 mg, time 5",65.74
same,Serum noribogaine concentration,"60 mg, time 6",64.47
same,Serum noribogaine concentration,"60 mg, time 7",58.26
same,Serum noribogaine concentration,"60 mg, time 8",59.01
same,Serum noribogaine concentration,"60 mg, time 12",46.10
same,Serum noribogaine concentration,"60 mg, time 16",37.99
same,Serum noribogaine concentration,"60 mg, time 24",27.76
same,Serum noribogaine concentration,"60 mg, time 36",20.32
same,Serum noribogaine concentration,"60 mg, time 48",14.56
same,Serum noribogaine concentration,"60 mg, time 60",9.32
same,Serum noribogaine concentration,"60 mg, time 72",6.55
same,Serum noribogaine concentration,"60 mg, time 96",3.41
same,Serum noribogaine concentration,"60 mg, time 120",1.64
same,Serum noribogaine concentration,"60 mg, time 144",0.89
same,Serum noribogaine concentration,"120 mg, time 0",0
same,Serum noribogaine concentration,"120 mg, time 0.5",19.66
same,Serum noribogaine concentration,"120 mg, time 1",76.04
same,Serum noribogaine concentration,"120 mg, time 1.5",98.80
same,Serum noribogaine concentration,"120 mg, time 2",122.67
same,Serum noribogaine concentration,"120 mg, time 2.5",135.05
same,Serum noribogaine concentration,"120 mg, time 3",130.55
same,Serum noribogaine concentration,"120 mg, time 3.5",128.20
same,Serum noribogaine concentration,"120 mg, time 4",143.90
same,Serum noribogaine concentration,"120 mg, time 5",128.76
same,Serum noribogaine concentration,"120 mg, time 6",118.16
same,Serum noribogaine concentration,"120 mg, time 7",110.76
same,Serum noribogaine concentration,"120 mg, time 8",102.12
same,Serum noribogaine concentration,"120 mg, time 12",77.88
same,Serum noribogaine concentration,"120 mg, time 16",62.24
same,Serum noribogaine concentration,"120 mg, time 24",44.19
same,Serum noribogaine concentration,"120 mg, time 36",28.83
same,Serum noribogaine concentration,"120 mg, time 48",19.54
same,Serum noribogaine concentration,"120 mg, time 60",10.75
same,Serum noribogaine concentration,"120 mg, time 72",7.75
same,Serum noribogaine concentration,"120 mg, time 96",4.66
same,Serum noribogaine concentration,"120 mg, time 120",2.45
same,Serum noribogaine concentration,"120 mg, time 144",1.20
same,Serum noribogaine concentration,"180 mg, time 0",0
same,Serum noribogaine concentration,"180 mg, time 0.5",10.78
same,Serum noribogaine concentration,"180 mg, time 1",65.68
same,Serum noribogaine concentration,"180 mg, time 1.5",134.19
same,Serum noribogaine concentration,"180 mg, time 2",163.32
same,Serum noribogaine concentration,"180 mg, time 2.5",179.63
same,Serum noribogaine concentration,"180 mg, time 3",221.67
same,Serum noribogaine concentration,"180 mg, time 3.5",236.27
same,Serum noribogaine concentration,"180 mg, time 4",238.87
same,Serum noribogaine concentration,"180 mg, time 5",217.26
same,Serum noribogaine concentration,"180 mg, time 6",197.10
same,Serum noribogaine concentration,"180 mg, time 7",207.47
same,Serum noribogaine concentration,"180 mg, time 8",185.55
same,Serum noribogaine concentration,"180 mg, time 12",159.53
same,Serum noribogaine concentration,"180 mg, time 16",127.63
same,Serum noribogaine concentration,"180 mg, time 24",97.34
same,Serum noribogaine concentration,"180 mg, time 36",59.50
same,Serum noribogaine concentration,"180 mg, time 48",43.75
same,Serum noribogaine concentration,"180 mg, time 60",33.69
same,Serum noribogaine concentration,"180 mg, time 72",23.06
same,Serum noribogaine concentration,"180 mg, time 96",13.04
same,Serum noribogaine concentration,"180 mg, time 120",3.37
same,Serum noribogaine concentration,"180 mg, time 144",1.61
